The target of this assay is T1, NUDT8 (Homo sapiens, UniProt Q8WV74).
T1 construct: H460 cells or H460 cells expressing luciferase in a 10 cm plate were incubated with indicated compounds; endogenous in cells; host or cells: H460
Nature of the assay: isoTOP-ABPP of compound-treated H460 cells: NUDT8. It counts as cell-based. As to conditions: NUDT8 C207; 40 μM. Here is the method:
For analysis of NR0B1 ligands or control compound reactivity, H460 cells or H460 cells expressing luciferase in a 10 cm plate were incubated with indicated compounds in serum/dye-free RPMI for 3 hours at 37° C. Cells were washed once ice-cold PBS and lysed in 1% Triton X-100 dissolved in PBS with protease inhibitors (Sigma) by sonication. Samples were clarified by centrifugation for 10 min at 16,000×g. Lysate was adjusted to 1.5 mg ml^−1 in 500 μL.
Samples were labeled for 1 h at ambient temperature with 100 μM iodoacetamide alkyne (1, IA-alkyne, 5 μL of 10 mM stock in DMSO). Samples were conjugated by copper-catalyzed azide-alkyne cycloaddition (CuAAC) to isotopically labeled, TEV-cleavable tags (TEV-tags). Heavy CuAAC reaction mixtures was added to the DMSO-treated or shGFP control samples and light CuAAC reaction mixture was added to compound-treated or shNRF2 samples. The CuAAC reaction mixture consisted of TEV tags (light or heavy, 10 μL of 5 mM stocks in DMSO, final concentration=100 μM), 1 mM tris(2-carboxyethyl)phosphine hydrochloride (TCEP; fresh 50× stock in water, final concentration=1 mM), ligand (17× stock in DMSO:t-butanol 1:4, final concentration=100 μM) and 1 mM CuSO4 (50× stock in water, final concentration=1 mM). The samples were allowed to react for 1 h at which point the samples were centrifuged (16,000×g, 5 min, 4° C.). […]

T1 sequence (Q8WV74 whole entry): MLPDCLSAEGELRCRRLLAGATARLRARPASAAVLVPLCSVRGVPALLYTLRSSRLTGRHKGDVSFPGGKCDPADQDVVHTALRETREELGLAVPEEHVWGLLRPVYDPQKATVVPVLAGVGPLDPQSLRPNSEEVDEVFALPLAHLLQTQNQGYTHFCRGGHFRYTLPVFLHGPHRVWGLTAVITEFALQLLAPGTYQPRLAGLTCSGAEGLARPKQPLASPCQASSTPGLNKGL

Take `O=C(c1ccc(N2CCOCC2)cc1)N1CCCC(N(Cc2ccccc2)C(=O)CCl)CC1` (stereo not shown) [BPK-29, N-benzyl-2-chloro-N-(1-(4-morpholinobenzoyl)azepan-4-yl)acetamide]: the “BPK-29-competed isoTOP-ABPP analysis” value is listed as “Yes (Competed defined as showing R value ≥ 3.0 at 40 μM of test compound)”.

The record behind these values is patent publication US20200278355A1, “CONJUGATED PROTEINS AND USES THEREOF” (THE SCRIPPS RESEARCH INSTITUTE, priority 2017, published 2020).
